# From US20260062422A1 (Halda Therapeutics OpCo, Inc., priority 2022, published 2026)
# Test system: T-Rex 293 cell line SC3 cells having increased expression of androgen receptor protein due to exposure to doxycycline
# Experiment: Cellular growth inhibition, T-Rex 293 SC3 cells with doxycycline (androgen receptor induced), CellTiter-Glo
# Format: cell-based
# Conditions: T-Rex 293 SC3 cells with 10 ng/mL doxycycline (increased androgen receptor expression), 72 hours
# Summary of the method: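 Cells of clone SC3 are seeded in charcoal-dextran-stripped serum medium with or without 10 ng/mL doxycycline to induce wild-type androgen receptor. After 24 h, serial compound dilutions are added at 0.5% DMSO and incubated 72 h at 37 °C. CellTiter-Glo 2.0 measures viability, giving GI50 values.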
compound,measurement,value
Cc1sc2c(c1C)C(c1ccc(CC3CC4(CCN(c5ccc(C(=O)N[C@H]6C(C)(C)[C@H](Oc7ccc(C#N)c(Cl)c7)C6(C)C)cn5)CC4)C3)cc1)=N[C@@H](Cc1ncco1)c1nnc(C)n1-2 [Compound I-143],GI50,< 500 nM
Cc1sc2c(c1C)C(c1ccc(N3CC(N4CCN(c5ncc(C(=O)N[C@H]6C(C)(C)[C@H](Oc7ccc(C#N)c(Cl)c7)C6(C)C)cn5)CC4)C3)cc1)=NC(Cc1ncco1)c1nnc(C)n1-2 (some centres unmarked) [Compound I-208],GI50,< 500 nM
